Patent US20110245316A1, “PREVENTION OR DELAY OF ONSET OF ORAL MUCOSITIS” (SCICLONE PHARMACEUTICALS, INC., priority 2010, published 2011)

Tested on: oral mucositis in patients receiving chemoradiation for head and neck cancer
Assay: Phase 2 randomized, double-blind, placebo-controlled trial: onset of oral mucositis (WHO OM Scale) in patients receiving CT/RT
Type: in vivo, human
Excerpt: OM is a painful, debilitating, and costly toxicity of different chemoradiotherapy (CT/RT) regimens used to treat head and neck cancer. This trial is a phase 2, randomized, double-blind, dose-ranging, placebo-controlled three-arm study in patients receiving CT/RT for the treatment of head and neck cancer, to assess the safety and tolerability of γ-D-glutamyl-L-tryptophan (SCV-07) as well as its efficacy in delaying the onset of severe OM as assessed by the WHO Oral Mucositis Scale.
The WHO OM Scale is the standard, validated instrument used in clinical trials to measure OM: Grade 0=none; Grade 1=erythema and soreness, no ulcers; Grade 2=ulcers, able to eat a solid diet; Grade 3=ulcers; requires a liquid diet; Grade 4=ulcers, not able to tolerate a solid or liquid diet, requires IV or tube feeding.
59 eligible patients with recently diagnosed, treatment naïve, pathologically-confirmed, non-metastatic squamous cell carcinoma of the oral cavity, oropharynx, hypopharynx or larynx were enrolled and treated with a concomitant regimen of CT/RT consisting of a continuous course of external beam irradiation (IMRT eligible) with a minimum cumulative dose of 50 Gray (Gy) and cisplatin monotherapy administered using standard weekly or tri-weekly dosing regimens (80-100 mg/m^2 administered on Days 0, 21 and 42) or weekly (30-40 mg/m^2). At least two ‘at risk’ intraoral sites were included in the radiation fields and received a cumulative RT dose of at least 50 Gy. Subjects were equally randomized to receive either placebo or one of two doses of γ-D-glutamyl-L-tryptophan (0.02 or 0.1 mg/kg) on each radiation day for up to 7 weeks.
Tables 2-7 summarize the statistics for the Full Analysis Set “FAS” (57 subjects), and the completer population (52 subjects), with respect to delay of onset of severe oral mucositis. Also see FIGS. 1 and 2.
SCV-07 efficacy, dosing and scheduling parameters were assessed in hamster models of acute, fractionated and concomitant chemoradiation (CRT). […] A multicenter, prospective, blinded, randomized trial evaluated SCV-07's ability to alter OM in CRT-treated HNC patients (n=57). Cytokine and gene microarray analyses were performed for samples obtained before and on the last radiation day.

[1] = 0.02 mg/kg vs placebo, Completer Population
[2] = 0.02 mg/kg, Completer Population
[3] = 0.02 mg/kg, Completer Population, at 30-<35 Gy
[4] = 0.02 mg/kg, Completer Population, at 35-<40 Gy
[5] = 0.02 mg/kg, Completer Population, at 40-<45 Gy
[6] = 0.02 mg/kg, Completer Population, at 45-<50 Gy
[7] = 0.02 mg/kg, Completer Population, at 50-<55 Gy
[8] = 0.02 mg/kg, Completer Population, at 55-<60 Gy
[9] = 0.02 mg/kg, Completer Population, at 65-<70 Gy
[10] = 0.02 mg/kg, Completer Population, at ≧70 Gy
[11] = 0.10 mg/kg vs placebo, Completer Population
[12] = 0.10 mg/kg, Completer Population

SMILES: N[C@H](CCC(=O)N[C@@H](Cc1c[nH]c2ccccc12)C(=O)O)C(=O)O [SCV-07, γ-D-glutamyl-L-tryptophan]
- Cox Regression Analysis of Time to Initial Occurrence of Sever OM, Hazard Ratio (95% CI) [1]: 1.884 (0.840, 4.225)
- Cox Regression Analysis of Time to Initial Occurrence of Ulcerative OM, Hazard Ratio (95% CI) [1]: 0.737 (0.377, 1.444)
- Cox Regression Analysis of Time to Initial Occurrence of Severe OM, Hazard Ratio (95% CI) (0.02 mg/kg vs placebo, FAS population): 1.989 (0.908, 4.357)
- Cumulative Dose of RT (Gy) at Initial Onset of Severe OM, Max [2]: 70 Gy
- Cumulative Dose of RT (Gy) at Initial Onset of Severe OM, Mean (SD) [2]: 43 (18.7) Gy
- Cumulative Dose of RT (Gy) at Initial Onset of Severe OM, Median [2]: 34 Gy
- Cumulative Dose of RT (Gy) at Initial Onset of Severe OM, Min [2]: 18 Gy
- Cumulative Dose of RT (Gy) at Initial Onset of Ulcerative OM, Max [2]: 62 Gy
- Cumulative Dose of RT (Gy) at Initial Onset of Ulcerative OM, Mean (SD) [2]: 24 (12.9) Gy
- Cumulative Dose of RT (Gy) at Initial Onset of Ulcerative OM, Median [2]: 22 Gy
- Cumulative Dose of RT (Gy) at Initial Onset of Ulcerative OM, Min [2]: 6 Gy
- Cumulative Dose of Radiation (Gy) Prior to Initial Occurrence of Severe OM (Delay to Onset of Severe OM), K-M Estimate, Mean (SE) [2]: 42 (4.2) Gy
- Cumulative Dose of Radiation (Gy) Prior to Initial Occurrence of Severe OM, K-M Estimate, 25%-75% [2]: 28-62 Gy
- Cumulative Dose of Radiation (Gy) Prior to Initial Occurrence of Severe OM, K-M Estimate, Median (95% CI) [2]: 34 (28, 62) Gy
- Cumulative Dose of Radiation (Gy) Prior to Initial Occurrence of Ulcerative OM (Delay to Onset of Ulcerative OM), K-M Estimate, Mean (SE) [2]: 24 (3.1) Gy
- Cumulative Dose of Radiation (Gy) Prior to Initial Occurrence of Ulcerative OM, K-M Estimate, 25%-75% [2]: 18-30 Gy
- Cumulative Dose of Radiation (Gy) Prior to Initial Occurrence of Ulcerative OM, K-M Estimate, Median (95% CI) [2]: 22 (18, 30) Gy
- Time (Days) to Initial Occurrence of Sever OM, K-M Estimate, 25%-7% [2]: 18 to 42 days
- Time (Days) to Initial Occurrence of Sever OM, K-M Estimate, Mean (SE) [2]: 28 (3.0) Days
- Time (Days) to Initial Occurrence of Sever OM, K-M Estimate, Median (95% CI) [2]: 25 (18, 42) Days
- Time (Days) to Initial Occurrence of Ulcerative OM, K-M Estimate, 25%-7% [2]: 10 to 20 days
- Time (Days) to Initial Occurrence of Ulcerative OM, K-M Estimate, Mean (SE) [2]: 16 (2.2) Days
- Time (Days) to Initial Occurrence of Ulcerative OM, K-M Estimate, Median (95% CI) [2]: 15 (10, 20) Days
- Cum. Percent of Subjects with Ulcerative OM (WHO > 1) (0.02 mg/kg, Completer Population, at 5-<10 Gy): 6% (1%, 35%)
- Cum. Percent of Subjects with Ulcerative OM (WHO > 1) (0.02 mg/kg, Completer Population, at 10-<15 Gy): 18% (6%, 45%)
- Cum. Percent of Subjects with Ulcerative OM (WHO > 1) (0.02 mg/kg, Completer Population, at 15-<20 Gy): 41% (22%, 67%)
- Cum. Percent of Subjects with Ulcerative OM (WHO > 1) (0.02 mg/kg, Completer Population, at 20-<25 Gy): 59% (37%, 81%)
- Cum. Percent of Subjects with Ulcerative OM (WHO > 1) (0.02 mg/kg, Completer Population, at 25-<30 Gy): 76% (55%, 93%)
- Cum. Percent of Subjects with Severe OM (WHO > 2) [3]: 53% (32%, 77%)
- Cum. Percent of Subjects with Ulcerative OM (WHO > 1) [3]: 88% (69%, 98%)
- Cum. Percent of Subjects with Severe OM (WHO > 2) [4]: 53% (32%, 77%)
- Cum. Percent of Subjects with Ulcerative OM (WHO > 1) [4]: 94% (76%, 100%)
- Cum. Percent of Subjects with Severe OM (WHO > 2) [5]: 59% (37%, 81%)
- Cum. Percent of Subjects with Ulcerative OM (WHO > 1) [5]: 94% (76%, 100%)
- Cum. Percent of Subjects with Severe OM (WHO > 2) [6]: 59% (37%, 81%)
- Cum. Percent of Subjects with Ulcerative OM (WHO > 1) [6]: 94% (76%, 100%)
- Cum. Percent of Subjects with Severe OM (WHO > 2) [7]: 65% (43%, 86%)
- Cum. Percent of Subjects with Ulcerative OM (WHO > 1) [7]: 94% (76%, 100%)
- Cum. Percent of Subjects with Severe OM (WHO > 2) [8]: 71% (49%, 89%)
- Cum. Percent of Subjects with Ulcerative OM (WHO > 1) [8]: 94% (76%, 100%)
- Cum. Percent of Subjects with Ulcerative OM (WHO > 1) (0.02 mg/kg, Completer Population, at 60-<65 Gy): 100% (76%, 100%)
- Cum. Percent of Subjects with Severe OM (WHO > 2) (0.02 mg/kg, Completer Population, at 60->65 Gy): 78% (56%, 94%)
- Cum. Percent of Subjects with Severe OM (WHO > 2) [9]: 78% (56%, 94%)
- Cum. Percent of Subjects with Ulcerative OM (WHO > 1) [9]: 100% (76%, 100%)
- Cum. Percent of Subjects with Ulcerative OM (WHO > 1) (0.02 mg/kg, Completer Population, at <5 Gy): 0% (0%, 0%)
- Cum. Percent of Subjects with Severe OM (WHO > 2) (0.02 mg/kg, Completer Population, at <30 Gy): 35% (18%, 62%)
- Cum. Percent of Subjects with Severe OM (WHO > 2) [10]: 78% (56%, 94%)
- Cum. Percent of Subjects with Ulcerative OM (WHO > 1) [10]: 100% (76%, 100%)
- Cumulative Dose of RT (Gy) at Initial Onset of Severe OM, Max (0.02 mg/kg, FAS population): 70 Gy
- Cumulative Dose of RT (Gy) at Initial Onset of Severe OM, Mean (SD) (0.02 mg/kg, FAS population): 41 (18.0) Gy
- Cumulative Dose of RT (Gy) at Initial Onset of Severe OM, Median (0.02 mg/kg, FAS population): 33 Gy
- Cumulative Dose of RT (Gy) at Initial Onset of Severe OM, Min (0.02 mg/kg, FAS population): 18 Gy
- Cumulative Dose of Radiation (Gy) Prior to Initial Occurrence of Severe OM (Delay to Onset of Severe OM), K-M Estimate, Mean (SE) (0.02 mg/kg, FAS population): 41 (3.8) Gy
- Cumulative Dose of Radiation (Gy) Prior to Initial Occurrence of Severe OM, K-M Estimate, 25%-75% (0.02 mg/kg, FAS population): 28-62 Gy
- Cumulative Dose of Radiation (Gy) Prior to Initial Occurrence of Severe OM, K-M Estimate, Median (95% CI) (0.02 mg/kg, FAS population): 34 (29, 59) Gy
- Time (Days) to Initial Occurrence of Severe OM, K-M Estimate, 25%-7% (0.02 mg/kg, FAS population): 18 to 42 days
- Time (Days) to Initial Occurrence of Severe OM, K-M Estimate, Mean (SE) (0.02 mg/kg, FAS population): 28 (2.7) Days
- Time (Days) to Initial Occurrence of Severe OM, K-M Estimate, Median (95% CI) (0.02 mg/kg, FAS population): 24 (19, 41) Days
- Cum. Percent of Subjects with Severe OM (WHO > 2) (0.02 mg/kg, FAS population, at 30-<35 Gy): 52% (32%, 75%)
- Cum. Percent of Subjects with Severe OM (WHO > 2) (0.02 mg/kg, FAS population, at 35-<40 Gy): 58% (37%, 79%)
- Cum. Percent of Subjects with Severe OM (WHO > 2) (0.02 mg/kg, FAS population, at 40-<45 Gy): 63% (42%, 83%)
- Cum. Percent of Subjects with Severe OM (WHO > 2) (0.02 mg/kg, FAS population, at 45-<50 Gy): 63% (42%, 83%)
- Cum. Percent of Subjects with Severe OM (WHO > 2) (0.02 mg/kg, FAS population, at 50-<55 Gy): 68% (47%, 87%)
- Cum. Percent of Subjects with Severe OM (WHO > 2) (0.02 mg/kg, FAS population, at 55-<60 Gy): 73% (53%, 90%)
- Cum. Percent of Subjects with Severe OM (WHO > 2) (0.02 mg/kg, FAS population, at 60-<65 Gy): 80% (59%, 94%)
- Cum. Percent of Subjects with Severe OM (WHO > 2) (0.02 mg/kg, FAS population, at 65-<70 Gy): 80% (59%, 94%)
- Cum. Percent of Subjects with Severe OM (WHO > 2) (0.02 mg/kg, FAS population, at >30 Gy): 36% (19%, 61%)
- Cum. Percent of Subjects with Severe OM (WHO > 2) (0.02 mg/kg, FAS population, at ≧70 Gy): 80% (59%, 94%)
- Cox Regression Analysis of Time to Initial Occurrence of Sever OM, Hazard Ratio (95% CI) [11]: 1.002 (0.433, 2.319)
- Cox Regression Analysis of Time to Initial Occurrence of Ulcerative OM, Hazard Ratio (95% CI) [11]: 0.475 (0.225, 1.004)
- Cox Regression Analysis of Time to Initial Occurrence of Severe OM, Hazard Ratio (95% CI) (0.10 mg/kg vs placebo, FAS population): 1.100 (0.484, 2.500)
- Cumulative Dose of RT (Gy) at Initial Onset of Severe OM, Max [12]: 72 Gy
- Cumulative Dose of RT (Gy) at Initial Onset of Severe OM, Mean (SD) [12]: 55 (14.8) Gy
- Cumulative Dose of RT (Gy) at Initial Onset of Severe OM, Median [12]: 57 Gy
- Cumulative Dose of RT (Gy) at Initial Onset of Severe OM, Min [12]: 20 Gy
- Cumulative Dose of RT (Gy) at Initial Onset of Ulcerative OM, Max [12]: 68 Gy
- Cumulative Dose of RT (Gy) at Initial Onset of Ulcerative OM, Mean (SD) [12]: 31 (16.6) Gy
